Data on 72 compounds can be found in PubChem BioAssay AID179 (DTP/NCI, 2004).

The test deals with CEM cells HIV-1 protection, formazan growth assay. Briefly: NCI AIDS Antiviral Assay. The conditions noted are these: for IC50: measured here: growth of uninfected CEM cells. The essentials:
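Category rules: moderately active means at least 50% protection on retest, and confirmed active means 100% protection reproducibly. The underlying data came from a formazan growth assay in HIV-1-infected CEM cells.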

Calls of active or inactive are those of the source.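 Rule for the calls: active = compounds giving half or more protection of infected cells from virus-caused growth loss, again on retest; inactive = the rest.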 Where a SMILES comes first, the peptide text is derived from it. [ ]: non-standard residue; d: D form. The star is where a group is joined. Phe(4-NO2) = N[CH](Cc1ccc([N+](=O)[O-])cc1)C(=O)O; Boc = CC(C)(C)OC(=O)*

By EC50 is commonly meant the concentration needed to bring the measured effect to its halfway point. By IC50 is commonly meant the concentration at which inhibition is half-maximal. Lower therefore signals greater potency in that assay. Take `Cc1nn(-c2ccccn2)c2ncnc(N)c12`: the EC50 was over 200 µM and the IC50 came to 162 µM.
For the compound `COC(=O)C(C(=O)C(=O)NC1Nc2ccc(C)cc2S1)c1nc2ccc(Cl)cc2[nH]c1=O` (stereo unspecified), the EC50 is over 28.8 µM and the IC50 is over 28.8 µM.
Consider `CCOC(=O)N1CCN(c2nc(C)n(-c3ccccc3)c(=S)c2C#N)CC1`, for which the EC50 was over 200 µM and the IC50 is over 200 µM.
Regarding `CN(C)N1C(=C(C#N)C#N)C(c2ccccc2)CC1C#N` (stereo unspecified), the EC50 is over 200 µM and the IC50 was over 200 µM.
Turning to `O=c1oc2cc(O)ccc2c2oc3cc(O)ccc3c12`, the EC50 was over 0.513 µM and the IC50 is 0.0162 µM.
As to `COc1cccc(C2c3cc4c(cc3OC3COC(=O)C32)OCO4)c1OC` (stereo unspecified), the EC50 was over 200 µM and the IC50 was found to be 120 µM.
Taken in the same sequence, the figures for `CCCCN(CCCC)CN1C(=O)/C(=C/c2ccc(NC(C)=O)cc2)NC1=S` were over 200 µM and over 200 µM.
Taken in the same sequence, the figures for `O=C1Oc2ccccc2C(=O)/C1=C/N1C(=O)/C(=C/c2ccc3c(c2)OCO3)SC1=S` were over 200 µM and 20.4 µM.
Turning to `CCCCCn1cnc2c1S(=O)(=O)N(C)C(NC(=O)c1ccccc1)=N2`, the EC50 was over 200 µM and the IC50 is over 200 µM.
Consider `CCc1c(O)c(O)c(C(C)=O)c2c(O)c(-c3c(C)cc4c(CC)c(O)c(O)c(C(C)=O)c4c3O)c(C)cc12`, for which the EC50 is over 69.2 µM and the IC50 turned out to be 2.24 µM.
Turning to `CC(C)(C)NNc1c([N+](=O)[O-])cnn(-c2ccccc2)c1=O`, the EC50 is over 49 µM and the IC50 came to 0.251 µM.
Taken in the same sequence, the figures for `CCN(CC)CC(C)C1NS(=O)(=O)c2ccccc21` (stereo unspecified) were over 200 µM and over 200 µM.
As for `Cc1cc2c(c(C(N)=O)c1C)-c1cccc(Cl)c1C2=O`, the outcome was inactive.
Consider `CCOC(=O)C1C(c2ccc(OC)cc2)C(C(=O)OCC)C(O)(C(F)(F)F)OC1(O)C(F)(F)F` (stereo unspecified), for which the EC50 was over 257 µM and the IC50 was found to be 151 µM.
Turning to `COC(=O)[C@@H]1CSC(=S)N1C(=O)C[C@@H]1CC=CC[C@@H]1CC(=O)Sc1ccccc1`, the result was inactive.
As to `COC1=CC(=O)c2c(cc3c(c2O)-c2c(OC)cc4cc5c(c(O)c4c2OC(=O)CC(C)(O)C3)C(=O)CC(C)(O)C5)C1=O` (stereo unspecified), the EC50 is over 100 µM and the IC50 amounted to 5.37 µM.
As for `NC(CSS(=O)(=O)O)=NCC1CC2CCC1C2` (stereo unspecified), the EC50 was over 200 µM and the 50% inhibitory concentration (IC50) is 91.2 µM.
Regarding `N=c1c2c(-c3ccccc3)c[nH]c2ncn1N`, the EC50 was over 200 µM and the IC50 was over 200 µM.
Consider `Cc1ccc(/C=N/Nc2ccccn2)s1`, for which the EC50 was over 200 µM and the IC50 is over 200 µM.
Consider `CC1(C)C(C(=O)O)C1C(=O)O` (stereo unspecified), for which the EC50 is over 200 µM and the IC50 is over 200 µM.
As to `O=C1OC(C(O)CO)C(O)=C1O` (stereo unspecified), the result was inactive.
On to `O=C1C(C=NC(=S)c2ccccc2)=C(O)c2ccccc21`, for which the EC50 is over 200 µM and the IC50 was 166 µM.
`O=C(OCC(Cl)(Cl)Cl)O[C@@H]1CCCC1(c1ccccc1)c1ccccc1`: the EC50 was over 135 µM and the IC50 was 49 µM.
Regarding `O=C1/C(=C/c2ccc(Br)s2)NC(=S)N1CN1CCOCC1`, the EC50 is over 200 µM and the IC50 was found to be 36.3 µM.
Taken in the same sequence, the figures for `CC(=O)Oc1ccccc1/C=C/C(=O)/C=C/c1ccccc1OC(C)=O` were over 20 µM and 2.14 µM.
The like results for `Fc1cccc(F)c1C1SCc2nc3cc(Cl)ccc3n21` (stereo unspecified) were, in that order, over 200 µM and 182 µM.
Consider `O=NNc1ccc(S(=O)(=O)c2ccc3ccccc3c2)cn1`, for which the EC50 was over 200 µM and the IC50 worked out at 112 µM.
Regarding `S=C1Cc2c(-c3ccc(Br)cc3)cc(-c3ccccc3)nc2-c2ccccc2N1`, the EC50 was over 151 µM and the IC50 is 6.17 µM.
Take `O=C1C(Cl)C(c2ccccc2)N1n1cnc2ccccc2c1=O` (stereo unspecified): the EC50 was over 79.4 µM and the IC50 is over 79.4 µM.
As to `COc1c(Br)cc(/C=C(\C#N)c2cccnc2)cc1Br`, the EC50 is over 200 µM and the IC50 was 25.1 µM.
Take `CCC12CN(C(=O)OC)C3C(Br)C1CCC(=O)C32` (stereo unspecified): the EC50 is over 200 µM and the IC50 was 178 µM.
Turning to `CC(C)(C)CC1=CC(=C2C=C(CC(C)(C)C)C(=O)C(CC(C)(C)C)=C2)C=C(CC(C)(C)C)C1=O`, the EC50 was over 15.5 µM and the IC50 is over 15.5 µM.
For `COc1cccc2c1C(=N)c1c(O)c3c(c(O)c1C2=O)C[C@@](O)(C(C)=O)C[C@@H]3OC1CC(N)C(O)C(C)O1` (stereo partly specified), the EC50 was over 0.2 µM and the IC50 worked out at 0.00631 µM.
In the case of `OC1(c2ccc(Cl)cc2)c2ccccc2-c2nc3ccccc3n21` (stereo unspecified), the EC50 is over 200 µM and the IC50 was determined as 174 µM.
As for `Cn1c(=O)oc(=O)c2ccccc21`, the result was inactive.
As for `Oc1ccc([S+](c2ccc(O)cc2)c2ccc(O)cc2)cc1`, the EC50 was over 145 µM and the IC50 was over 145 µM.
Regarding `CN(C)CCCN1C(=O)CCC(=O)Nc2ccccc2-c2ccccc21`, the outcome was inactive.
With `COCC1=C(O)C=C2Oc3c(C(C)=O)c(O)c(C)c(O)c3[C@@]2(C)C1=O`, the EC50 was over 100 µM and the IC50 was 12 µM.
The like results for `Cc1ccc(N=c2oc3c(ccc4ccccc43)nc2Nc2ccc(C)cc2)cc1` were, in that order, over 200 µM and over 200 µM.
On to `N#C/C(=C\c1ccccc1)c1ccccc1[N+](=O)[O-]`, for which the EC50 is over 200 µM and the IC50 amounted to 12.6 µM.
Regarding `O=C1CCSSCCC(=O)NCCN1`, the EC50 is over 22.4 µM and the IC50 is over 22.4 µM.
Take `O=C(/C=C/c1cccc(Br)c1)c1ccccc1`: the EC50 was over 13.2 µM and the IC50 was over 13.2 µM.
With `C/C(N)=N/OCc1nc(C)no1`, the EC50 is over 200 µM and the IC50 was over 200 µM.
Consider `O=C(OC/C=C1C=C(OC(=O)c2ccccc2)/C(=N/N(C(=O)c2ccccc2)c2ccccc2)O\1)c1ccccc1`, for which the EC50 was over 200 µM and the IC50 stood at 11 µM.
For the compound `CCN(CC)CCNc1ccc(CO)c2sc3ccccc3c(=O)c12`, the result was inactive and the IC50 is 2690 µM.
For `CSc1ncnc2c1cnn2CCCCO`, the EC50 is over 200 µM and the IC50 was over 200 µM.
As for `[N-]=[N+]=NC1CC(n2cc(C(OCC(F)(F)F)OCC(F)(F)F)c(=O)[nH]c2=O)OC1CO` (stereo unspecified), the EC50 worked out at 25.1 µM and the IC50 worked out at 107 µM.
Taken in the same sequence, the figures for `O=C1OC2CCCC[C@@H]2C2C[C@]34CCCCC3[C@@H](C(=O)O4)C12` (stereo partly specified) were over 23.4 µM and over 23.4 µM.
The like results for `O=c1c2ccccc2nc(-c2ccccc2)n1NC(=S)Nc1cccc(Cl)c1` were, in that order, over 33.1 µM and over 33.1 µM.
As to `CON(C(=O)OC(C)(C)C)c1ccccc1`, the EC50 was 61.7 µM and the IC50 is over 200 µM.
Regarding `CCCc1nc(NC#N)nc(C(=O)Nc2ccccc2)c1CC`, the EC50 was over 407 µM and the IC50 is over 407 µM.
For the compound `COC(=O)CCC(NC(=O)OC(C)(C)C)C(=O)NC(Cc1ccc([N+](=O)[O-])cc1)C(=O)NC(CCC(=O)OC)C(=O)OC` (stereo unspecified) (Boc-Glu(OMe)-[Phe(4-NO2)]-Glu(OMe)-OMe; configuration not given here), the EC50 is over 100 µM and the IC50 is 47.9 µM.
Consider `CCCCNc1cc(Nc2ccc(Br)cc2)nc(N)n1`, for which the EC50 was over 2 µM and the IC50 is 1.07 µM.
Take `CC(=O)OC(Cc1ccc2ccccc2n1)(C(F)(F)F)C(F)(F)F`: the result was inactive.
On to `NS(=O)(=O)c1ccc(NC(=O)c2ccccc2SSc2ccccc2C(=O)Nc2ccc(S(N)(=O)=O)cc2)cc1`, for which the EC50 was 2.19 µM and the IC50 stood at 85.1 µM.
Turning to `CCc1nnc2c3cc4ccccc4n3cnn12`, the EC50 was over 151 µM and the IC50 is over 151 µM.
For the compound `CCOC(=O)Cc1cc(=O)oc2cc(O)ccc12`, the EC50 was over 200 µM and the 50% inhibitory concentration (IC50) was determined as 166 µM.
Regarding `COc1ccc(C(=O)/C=C/c2ccc(OCCCCCCCCCCOc3ccc(/C=C/C(=O)c4ccc(OC)c(OC)c4)cc3)cc2)c(OC)c1`, the result was inactive.
`CCOP(=O)(OCC)C(C(=O)OC)C(=O)C(=O)Nc1cccc(O)c1` (stereo unspecified): the EC50 is over 676 µM and the IC50 was over 676 µM.
Regarding `Cc1ccccc1/C=C1/N=C(c2ccccc2)OC1=O`, the EC50 was over 200 µM and the IC50 was 33.1 µM.
Consider `O=C(NOC(=O)c1ccc([N+](=O)[O-])cc1)c1ccc(Cl)cc1`, for which the EC50 is over 112 µM and the IC50 was over 112 µM.
In the case of `COc1cc2nncc(SCc3ccccc3)c2cc1OC`, the EC50 is over 85.1 µM and the half-maximal inhibitory concentration (IC50) is over 85.1 µM.
Turning to `NC(=O)NNCc1c(-c2ccccc2)no[n+]1[O-]`, the EC50 was over 200 µM and the IC50 is over 200 µM.
With `O=C1/C(=N\[O-])C(S(=O)(=O)[O-])=Cc2cc(S(=O)(=O)[O-])cc(O)c21.O=C1/C(=N\[O-])C(S(=O)(=O)[O-])=Cc2cc(S(=O)(=O)[O-])cc(O)c21.[Cu+2]`, the EC50 is over 200 µM and the half-maximal inhibitory concentration (IC50) came out at 123 µM.
Taken in the same sequence, the figures for `CC(=O)n1nc(-c2ccc3ccccc3c2)nc1C` were over 200 µM and 79.4 µM.
As for `Cc1cc(NS(=O)(=O)c2ccc(NC(=O)c3cccc4c(Nc5ccc(S(=O)(=O)Nc6cc(C)on6)cc5)c5ccc(Cl)cc5nc34)cc2)no1`, the EC50 is over 240 µM and the IC50 was found to be 135 µM.
On to `O=c1[nH]cnc2[nH]ncc12`, for which the EC50 was over 200 µM and the IC50 was over 200 µM.
`COc1ccc2nc3cc(Cl)ccc3c(NCCNCCCNC(=O)c3cc(-c4ccccc4)nc4ccccc34)c2c1`: the EC50 was over 20 µM and the IC50 was found to be 1.12 µM.
`[Cl][Pd][Cl].[NH-]CCN1CC1`: the EC50 was over 200 µM and the IC50 was 12.3 µM.
The like results for `O=C(O)/C(Cl)=C(\Cl)C(=O)c1ccccc1` were, in that order, over 1020 µM and over 1020 µM.
Turning to `O=C1CCN2CCC(=O)c3cccc1c32`, the outcome was inactive.
Take `CCCCN1C(=O)N(c2ccc(OCC)cc2)C2N(CCCC)C1C(C)(C)C2(C)C` (stereo unspecified): the EC50 was over 21.9 µM and the IC50 was over 21.9 µM.
